Drawing on patent US5955572A, “Structural mimics of RGD-binding sites” (La Jolla Cancer Research Foundation, priority 1998, dated 1999), this text covers IC50 for one compound.

Where a SMILES comes first, the peptide text is derived from it. Bridges are numbered along the chain shown (N, C = ends).

This assay addresses T1, β3 (109-133) peptide (Homo sapiens, UniProt P05106).
T1 construct: made in house; host or cells: chemical synthesis
T1 sequence (P05106 135-159 limits assumed): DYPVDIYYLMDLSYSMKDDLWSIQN
The assay can be described thus: RGD-phage binding to peptides from the β3 integrin subunit. Conditions: titration experiments (not shown); read-out: concentration giving 50% inhibition of RGD-binding to β3 (109-133).

Consider `CC(C)C[C@@H]1NC(=O)[C@H](Cc2c[nH]c3ccccc23)NC(=O)CNC(=O)[C@H](CC(=O)O)NC(=O)[C@H](CC(=O)O)NC(=O)[C@H](Cc2c[nH]c3ccccc23)NC(=O)[C@@H](N)CSSC[C@@H](C(=O)O)NC1=O` (H-CWDDGWLC-OH; disulfide 1-8), for which the IC50 is roughly 1000 nM.
